# Experimental data as given in US6576624B1, “Use of dopamine receptor antagonists in palliative tumor therapy” (Zentaris AG, priority 1996, dated 2003).
# Where two headings read alike, the source gives them in different places. Marks after values point to notes of the source that are not given here.
# Experiments:
# [1] = system: DMBA-induced breast tumor; assay: Anti-tumor action on DMBA-induced breast tumor of rats; type: in vivo, rat; details: rats with DMBA-induced breast tumor; FIGS. 11-12
# [2] = for Effect on body weight development of animals treated with octadecyl(1,1-dimethylpiperidinio-4-yl)phosphate: simultaneous administration with D-21266, normal rats, FIGS. 7 and 8, Table 2; for Changes of body weight, Control AUC, day 7 / Changes of body weight, D-18506(4 × 68.1 mg/kg p.o.) AUC, day 7 / Changes of body weight, D-21266(4 × 46.4 mg/kg p.o.) AUC, day 7: AUC to day 7; for Changes of body weight, Control AUC, day 7 / Changes of body weight, Control AUC, day 11: asterisks = comparison with control group; for Changes of body weight, D-18506(4 × 68.1 mg/kg p.o.) AUC, day 7 / Changes of body weight, D-18506(4 × 68.1 mg/kg p.o.) AUC, day 11: compared with D-18506 alone (D-18506 4 × 68.1 mg/kg p.o. alone); for Changes of body weight, D-18506(4 × 68.1 mg/kg p.o.) AUC, day 7 / Changes of body weight, D-18506(4 × 68.1 mg/kg p.o.) AUC, day 11 / Changes of body weight, D-21266(4 × 46.4 mg/kg p.o.) AUC, day 7 / Changes of body weight, D-21266(4 × 46.4 mg/kg p.o.) AUC, day 11: same i.p. doses as c1; for Changes of body weight, Control AUC, day 11 / Changes of body weight, D-18506(4 × 68.1 mg/kg p.o.) AUC, day 11 / Changes of body weight, D-21266(4 × 46.4 mg/kg p.o.) AUC, day 11: AUC to day 11; for Changes of body weight, D-21266(4 × 46.4 mg/kg p.o.) AUC, day 7 / Changes of body weight, D-21266(4 × 46.4 mg/kg p.o.) AUC, day 11: compared with D-21266 alone (D-21266 4 × 46.4 mg/kg p.o. alone)
# Source text: Comparative studies with respect to body weight changes in healthy and tumor-bearing rats were investigated after administration of miltefosine or octadecyl(1,1-dimethylpiperidinio-4-yl)phosphate alone and in combination with various appetite-stimulating compounds.
# [3] = cancer patients; Eur. J. Cancer 29A, 208-209, 1993; cited from earlier work
# [4] = Table 1, rat, i.p. mg/kg: Domperidone 0.1, Pimozide 0.2, Metoclopramide 0.2, Cyproheptadine 2.5, combinations with D-18506 4 × 68.1 mg/kg p.o.
# [5] = Table 2, rat, i.p. mg/kg: Pimozide 0.1, Cyproheptadine 2.5, Metoclopramide 0.2, Domperidone 0.1, combinations with D-21266 4 × 46.4 mg/kg p.o.
Compound,"Effect on anti-tumor action of octadecyl(1,1-dimethylpiperidinio-4-yl)phosphate [1]","Effect on body weight development of animals treated with octadecyl(1,1-dimethylpiperidinio-4-yl)phosphate [2]","Body weight development, alone and in combination with octadecyl(1,1-dimethylpiperidinio-4-yl)phosphate ([2]; tumor-bearing rats, FIGS. 9-10)","Changes of body weight, Control AUC, day 7 [2, 4]","Changes of body weight, D-18506(4 × 68.1 mg/kg p.o.) AUC, day 7 ([2]; Table 1, rat)","Changes of body weight, Control AUC, day 11 [2, 4]","Changes of body weight, D-18506(4 × 68.1 mg/kg p.o.) AUC, day 11 ([2]; Table 1, rat)","Changes of body weight, Control AUC, day 7 [2, 5]","Changes of body weight, D-21266(4 × 46.4 mg/kg p.o.) AUC, day 7 ([2]; Table 2, rat)","Changes of body weight, Control AUC, day 11 [2, 5]","Changes of body weight, D-21266(4 × 46.4 mg/kg p.o.) AUC, day 11 ([2]; Table 2, rat)","Effect on the loss of weight caused by miltefosine ([2]; simultaneous administration with miltefosine, healthy and tumor-bearing rats, domperidone or pimozide 5×0.1 mg/kg i.p.)","Body weight development after octadecyl(1,1-dimethylpiperidinio-4-yl)phosphate alone ([2]; rat, in vivo)","Body weight change on administration of miltefosine alone ([2]; rat, in vivo)",Side effects in patients treated with miltefosine [3]
"O=c1[nH]c2ccccc2n1CCCN1CCC(n2c(=O)[nH]c3cc(Cl)ccc32)CC1 [Domperidone, domperidone]",without affecting the anti-tumor action,more than compensated,increase the body weight development,–,–,–,–,–,–,–,–,–,–,–,–
"CN1CCC(=C2c3ccccc3C=Cc3ccccc32)CC1 [Cyproheptadine, cyproheptadine]",–,no significant effect,–,0.8,0.8,15.5,15.5,1.5,1.5,20.6,20.6,–,–,–,–
"O=c1[nH]c2ccccc2n1C1CCN(CCCC(c2ccc(F)cc2)c2ccc(F)cc2)CC1 [Pimozide, pimozide]",–,–,–,30.4**,30.4**,69.8**,69.8**,31.2**,31.2**,67.5**,67.5**,–,–,–,–
"CCN(CC)CCNC(=O)c1cc(Cl)c(N)cc1OC [Metoclopramide, metoclopramide]",–,no significant effect,–,11.5,11.5**,30.5,30.5**,19.2,19.2,49.4,49.4,does not lead to any positive effect,–,–,–
"CCCCCCCCCCCCCCCCCCOP(=O)([O-])OC1CC[N+](C)(C)CC1 [D-21266, octadecyl(1,1-dimethylpiperidinio-4-yl)phosphate]",–,–,–,–,–,–,–,–,10.6,–,37.1,–,increase in weight less than the control animals,–,–
"CCCCCCCCCCCCCCCCOP(=O)([O-])OCC[N+](C)(C)C [D-18506, miltefosine]",–,–,–,–,−17.9,–,−23.5,–,–,–,–,–,–,clear loss of weight,marked loss of body weight
